# Measured values from ChEMBL document CHEMBL5500342, “Rational molecular design converting fascaplysin derivatives to potent broad-spectrum inhibitors against bacterial pathogens via targeting FtsZ” (Eur J Med Chem, 2024).
# Active and inactive are the calls of the source. The rule behind the calls is not given here.
# What was measured:
# [1] = Selectivity ratio of MBC for bactericidal activity against penicillin-susceptible Escherichia coli ATCC25922 to MIC for antibacterial activity against penicillin-susceptible Escherichia coli ATCC25922; type: functional
# [2] = biological target: T1, Cell division protein FtsZ (Staphylococcus aureus) (UniProt P0A031); test: Effect on FtsZ GTPase activity in methicillin-resistant Staphylococcus aureus ATCC43300 upto 8 microg/ml incubated for 30 mins by malachite green phosphate based assay; conditions: dose <= 8.0 µg/ml
# T1 sequence (whole entry): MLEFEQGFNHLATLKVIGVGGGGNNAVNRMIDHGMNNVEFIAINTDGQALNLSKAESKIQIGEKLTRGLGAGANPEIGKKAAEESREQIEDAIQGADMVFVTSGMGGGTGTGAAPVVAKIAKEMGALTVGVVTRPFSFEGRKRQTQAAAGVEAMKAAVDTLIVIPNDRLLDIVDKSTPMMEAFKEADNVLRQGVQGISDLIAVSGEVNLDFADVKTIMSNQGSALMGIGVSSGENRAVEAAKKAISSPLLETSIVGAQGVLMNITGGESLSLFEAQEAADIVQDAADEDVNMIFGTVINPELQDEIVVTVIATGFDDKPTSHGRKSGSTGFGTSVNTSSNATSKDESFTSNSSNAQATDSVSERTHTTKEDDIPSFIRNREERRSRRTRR
# [3] = tested on: Staphylococcus aureus; test: Selectivity ratio of MBC for bactericidal activity against methicillin-resistant Staphylococcus aureus ATCC43300 to MIC for antibacterial activity against methicillin-resistant Staphylococcus aureus ATCC43300; type: functional
# [4] = tested on: Cell membrane; test: Disruption of cell membrane integrity in methicillin-resistant Staphylococcus aureus ATCC43300 assessed as appearance of sunken fine microstructures at 4 times of MIC incubated for 2 hrs by scanning electron microscopic analysis; type: cell membranes
# [5] = tested on: Streptococcus pneumoniae; test: Antibacterial activity against Streptococcus pneumoniae ATCC49619 assessed as inhibition of bacterial growth incubated for 18 hrs by CLSI protocol based microbroth dilution method; type: functional
# [6] = biological target: T2, Cell division protein FtsZ (Escherichia coli K-12) (UniProt P0A9A6); test: Induction of recombinant FtsZ polymerization in penicillin-susceptible Escherichia coli ATCC25922 assessed as stabilization of FtsZ polymers at 1 to 4 microg/ml incubated for 10 mins by light scattering assay; conditions: filed as activator, dose 1-4 µg/ml
# T2 sequence (whole entry): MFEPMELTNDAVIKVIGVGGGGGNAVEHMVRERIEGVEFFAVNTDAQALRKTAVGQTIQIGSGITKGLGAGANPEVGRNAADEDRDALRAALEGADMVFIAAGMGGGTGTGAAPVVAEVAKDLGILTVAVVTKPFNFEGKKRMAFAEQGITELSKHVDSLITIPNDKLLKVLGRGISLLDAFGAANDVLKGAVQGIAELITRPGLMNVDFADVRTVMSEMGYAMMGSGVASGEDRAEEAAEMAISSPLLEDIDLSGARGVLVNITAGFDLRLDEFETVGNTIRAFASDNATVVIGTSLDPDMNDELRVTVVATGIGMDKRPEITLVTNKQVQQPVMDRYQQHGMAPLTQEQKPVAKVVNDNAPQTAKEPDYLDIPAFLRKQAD
# [7] = tested on: Pseudomonas aeruginosa; test: Antibacterial activity against Pseudomonas aeruginosa BNCC337940 assessed as inhibition of bacterial growth incubated for 18 hrs by CLSI protocol based microbroth dilution method; type: functional
# [8] = biological target: T2, Cell division protein FtsZ (Escherichia coli K-12); test: Induction of FtsZ polymerization in penicillin-susceptible Escherichia coli ATCC25922 assessed as larger bundles at 4 microg/ml preincubated for 10 mins followed by GTP addition and measured after 15 mins by transmission electron microscopic analysis; conditions: filed as activator, dose 4.0 µg/ml, time 25.0 min
# [9] = tested on: Bacillus subtilis; test: Induction of morphological changes in Bacillus subtilis BNCC336690 assessed as cell elongation by measuring cell length at 0.5 times of MIC incubated for 4 hrs by optical microscopic analysis; type: functional
# [10] = tested on: Cell membrane; test: Disruption of cell membrane integrity in penicillin-susceptible Escherichia coli ATCC25922 at 4 times of MIC incubated for 2 hrs by scanning electron microscopic analysis; type: cell membranes
# [11] = tested on: Staphylococcus aureus; test: Antibacterial activity against methicillin-resistant Staphylococcus aureus ATCC43300 assessed as log reduction in bacterial count measured within 0.5 hrs by time kill kinetics assay; type: functional
# [12] = biological target: T2, Cell division protein FtsZ (Escherichia coli K-12); test: Enhancement of FtsZ GTPase activity in penicillin-susceptible Escherichia coli ATCC25922 upto 8 microg/ml incubated for 30 mins by malachite green phosphate based assay relative to control; conditions: dose <= 8.0 µg/ml
# [13] = tested on: Staphylococcus aureus; test: Induction of morphological changes in methicillin-resistant Staphylococcus aureus ATCC43300 assessed as swelling at 0.5 times of MIC incubated for 4 hrs by optical microscopic analysis; type: functional, organism-based
# [14] = biological target: T2, Cell division protein FtsZ (Escherichia coli K-12); test: Induction of recombinant FtsZ polymerization in penicillin-susceptible Escherichia coli ATCC25922 assessed as stabilization of FtsZ bundles at 1 to 4 microg/ml incubated for 10 mins by light scattering assay; conditions: filed as activator, dose 1-4 µg/ml
# [15] = tested on: Staphylococcus aureus; test: Inhibition of biofilm formation in methicillin-resistant Staphylococcus aureus ATCC43300 incubated for 24 hrs by crystal violet staining based analysis; type: functional, organism-based; conditions: dose 0.78-100 µg/ml
# [16] = biological target: T1, Cell division protein FtsZ (Staphylococcus aureus); test: Induction of FtsZ polymerization in methicillin-resistant Staphylococcus aureus ATCC43300 assessed as increase in thickness of assembly at 4 microg/ml preincubated for 10 mins followed by GTP addition and measured after 15 mins by transmission electron microscopic analysis; conditions: filed as activator, dose 4.0 µg/ml, time 25.0 min
# [17] = biological target: T1, Cell division protein FtsZ (Staphylococcus aureus); test: Induction of FtsZ polymerization in methicillin-resistant Staphylococcus aureus ATCC43300 assessed as bundling of FtsZ protofilaments at 4 microg/ml preincubated for 10 mins followed by GTP addition and measured after 15 mins by transmission electron microscopic analysis; conditions: filed as activator, dose 4.0 µg/ml, time 25.0 min
# [18] = tested on: Erythrocyte; test: Hemolytic activity in human erythrocytes at 0.195 to 25 microg/ml incubated for 1 hrs by absorbance based assay; type: toxicity, cell-based; conditions: dose 0.195-25 µg/ml
# [19] = biological target: T2, Cell division protein FtsZ (Escherichia coli K-12); test: Induction of FtsZ polymerization in penicillin-susceptible Escherichia coli ATCC25922 assessed as thicker bundles at 4 microg/ml preincubated for 10 mins followed by GTP addition and measured after 15 mins by transmission electron microscopic analysis; conditions: filed as activator, dose 4.0 µg/ml, time 25.0 min
# [20] = biological target: T2, Cell division protein FtsZ (Escherichia coli K-12); test: Induction of recombinant FtsZ polymerization in penicillin-susceptible Escherichia coli ATCC25922 assessed as bundling of FtsZ protofilaments at 1 to 4 microg/ml incubated for 10 mins by light scattering assay; conditions: filed as activator, dose 1-4 µg/ml
# [21] = tested on: Staphylococcus aureus; test: Antibacterial activity against methicillin-resistant Staphylococcus aureus ATCC43300 assessed as reduction in bacterial count at 4 times of MIC incubated for 24 hrs by time kill kinetics assay; type: functional, organism-based
# [22] = tested on: Bacillus subtilis; test: Antibacterial activity against Bacillus subtilis BNCC336690 assessed as inhibition of bacterial growth incubated for 18 hrs by CLSI protocol based microbroth dilution method; type: functional
# [23] = biological target: T1, Cell division protein FtsZ (Staphylococcus aureus); test: Induction of FtsZ polymerization in methicillin-resistant Staphylococcus aureus ATCC43300 assessed as increase in size of assembly at 4 microg/ml preincubated for 10 mins followed by GTP addition and measured after 15 mins by transmission electron microscopic analysis; conditions: filed as activator, dose 4.0 µg/ml, time 25.0 min
# [24] = tested on: Staphylococcus aureus; test: Bactericidal activity against methicillin-resistant Staphylococcus aureus ATCC43300 incubated for 24 hrs by CLSI protocol based microbroth dilution method; type: functional
# [25] = tested on: Staphylococcus aureus; test: Antibacterial activity against methicillin-resistant Staphylococcus aureus ATCC43300 assessed as inhibition of bacterial growth incubated for 18 hrs by CLSI protocol based microbroth dilution method; type: functional
Compound,Selectivity ratio [1],Activity [2],Selectivity ratio [3],Activity [4],MIC [5],Activity [6],MIC [7],Activity [8],Activity [9],Activity [10],Activity [11],Activity [12],Activity [13],Activity [14],inhibition [15],Activity [16],Activity [17],Activity [18],Activity [19],Activity [20],other results
O=C1c2ccccc2-[n+]2ccc3c([nH]c4ccc(-c5ccccc5F)cc43)c21.[Cl-],1,inactive,1,Active,0.195 µg/mL,Active,> 200 µg/mL,Active,>50 um,Active,>3 log10CFU/ml,10%,Active,Active,Dose-Dependent Effect,Active,Active,Non-Toxic,Active,Active,Activity [21]: Active; MIC [22]: 0.024 µg/mL; Activity [23]: Active; MBC [24]: 0.195 µg/mL; MIC [25]: 0.195 µg/mL
O=C1c2ccccc2-[n+]2ccc3c([nH]c4ccc(-c5ccccc5Cl)cc43)c21.[Cl-],4,inactive,1,Active,0.195 µg/mL,Active,> 200 µg/mL,Active,>50 um,Active,>3 log10CFU/ml,10%,Active,Active,Dose-Dependent Effect,Active,Active,Non-Toxic,Active,Active,Activity [21]: Active; MIC [22]: 0.049 µg/mL; Activity [23]: Active; MBC [24]: 1.56 µg/mL; MIC [25]: 1.56 µg/mL
O=C1c2ccccc2-[n+]2ccc3c([nH]c4ccc(-c5ccccc5C(F)(F)F)cc43)c21.[Cl-],4,inactive,1,Active,0.195 µg/mL,Active,> 200 µg/mL,Active,>50 um,Active,>3 log10CFU/ml,10%,Active,Active,Dose-Dependent Effect,Active,Active,Non-Toxic,Active,Active,Activity [21]: Active; MIC [22]: 0.024 µg/mL; Activity [23]: Active; MBC [24]: 1.56 µg/mL; MIC [25]: 1.56 µg/mL
